Data as given in patent US20230295285A1, “METHODS OF REVERSING CACHEXIA AND PROLONGING SURVIVAL COMPRISING ADMINISTERING A GDF15 MODULATOR AND AN ANTI-CANCER AGENT” (AVEO Pharmaceuticals, Inc., priority 2014, published 2023).
Where two headings read alike, the source gives them in different places.

How the values were obtained:
Format in all cases: in vivo
GDF15 [1] = molecular target: T1, GDF15 (Mus musculus, UniProt Q9Z0J7); details: ICR-Scid mice
T1 construct: Naive non-tumor-bearing, 8-week old, female, ICR-Scid mice; from tissue; host or cells: whole animal: ICR-Scid mice (endogenous circulating GDF15)
T1 sequence (Q9Z0J7 189-303): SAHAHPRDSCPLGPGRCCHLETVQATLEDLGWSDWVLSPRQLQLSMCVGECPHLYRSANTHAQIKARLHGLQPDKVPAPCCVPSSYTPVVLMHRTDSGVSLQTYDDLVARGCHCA
Method: Naive non-tumor-bearing, 8-week old, female, ICR-Scid mice were treated with carboplatin (60 mpk) by intra-peritoneal injection on Day 0 and Day 3 of this experiment. On Day 2, after mice experience 8% body weight loss, mice were randomized into two groups of ten mice each. One group received carboplatin (60 mpk) plus (1) vehicle or carboplatin (60 mpk) plus (2) rabbit monoclonal antibody raised against murine anti-GDF15 antibody, R-23 (20 mpk) by intra-peritoneal injection on Day 2 and Day 4. In the absence of GDF15 inhibition, 80% of the mice died due to cachexia caused by the carboplatin agent over a period of 8 days.

GDF15 [2] = molecular target: T1, GDF15; details: non-tumor-bearing ICR-Scid mice; cisplatin 3 mpk i.p. twice a week + vehicle; over 9 days
Method: Naive non-tumor-bearing, 8-week old, female, ICR-Scid mice were treated with cisplatin (3 mpk) twice a week by intra-peritoneal injection. Body weight was measured daily. After 2 doses of cisplatin (day 0 of the experiment) mice were randomized into two groups of ten mice each. One group received cisplatin 3 mpk plus (1) vehicle; or cisplatin 3 mpk with (2) rabbit monoclonal antibody raised against murine anti-GDF15 antibody, R-23 twice a week (20 mpk) by intra-peritoneal injection. In the absence of GDF15 inhibition, 80% of the mice die due to cachexia caused by the cisplatin agent over a period of 9 days.

GDF15 [3] = molecular target: T1, GDF15; details: ICR-Scid mice; remark: listed apart in the source
Method: Naive non-tumor-bearing, 8-week old, female, ICR-Scid mice were treated daily with oxaliplatin (3 mpk) by intra-peritoneal injection. On Day 3, after mice experience 8% body weight loss, mice were randomized into two groups of ten mice each. One group received oxaliplatin (3 mpk) plus (1) vehicle; or oxaliplatin (3 mpk) plus (2) rabbit monoclonal antibody raised against murine anti-GDF15 antibody, R-23 (20 mpk). Antibody or vehicle was dosed on Day 3, 5, 7, 9 by intra-peritoneal injection. In the absence of GDF15 inhibition, 45% of the mice die due to cachexia caused by the oxaliplatin agent over a period of 10 days.

GDF15 [4] = test: Survival and cachexia in mice bearing LNCaP prostate xenograft, anti-GDF15 antibody plus tivozanib; details: LNCaP xenograft NCR Nude mice
Method: LNCaP cells were grown in culture at 37° C. in an atmosphere containing 5% CO2, using RPMI-1640 Medium (ATCC® 30-2001™) containing 10% FBS. Cells were inoculated subcutaneously into the flank of 8-week old female NCR Nude mice with 5×10^6 cells per mouse in 50% matrigel. When tumor size reached 500 mm^3, the mice were randomized into three groups of ten mice each. Each group received one of the following treatments: (1) murine immunoglobulin G (20 mpk) and vehicle (Control); (2) murine anti-GDF15 antibody 14F11 (20 mpk) and tivozanib (5 mpk); or (3) murine immunoglobulin G (20 mpk) and tivozanib (5 mpk). Antibodies were administered every 3 days by intra-peritoneal injection, tivozanib and vehicle control was administered daily by oral gavage. Body weight and tumor size were measured daily. Mice were evaluated daily and if any of the following criteria were achieved, animals were sacrificed: a) tumor size larger than 2,000 mm^3; b) body weight loss greater than 20%; c) moribund.
In the absence of GDF15 inhibition, 70% of the mice die due to cachexia over a period of 30 days, even in the presence of anti-cancer treatment.

N.N.O=C([O-])C1(C(=O)[O-])CCC1.[Pt+2] [carboplatin]
mice died due to cachexia caused by carboplatin (GDF15 [1]; carboplatin 60 mpk i.p. Day 0 and Day 3 + vehicle, over 8 days): 80%
body weight loss (GDF15 [1]; carboplatin 60 mpk i.p., on Day 2, before randomization): 8%

N.N.[Cl][Pt][Cl] [cisplatin]
mice die due to cachexia caused by cisplatin (GDF15 [2]): 80%

O=C1[O][Pt]2([NH][C@@H]3CCCC[C@H]3[NH]2)[O]C1=O [oxaliplatin]
mice die due to cachexia caused by oxaliplatin (GDF15 [3]; oxaliplatin 3 mpk i.p. daily + vehicle, over 10 days): 45%
body weight loss (GDF15 [3]; oxaliplatin 3 mpk i.p. daily, on Day 3, before randomization): 8%

COc1cc2nccc(Oc3ccc(NC(=O)Nc4cc(C)on4)c(Cl)c3)c2cc1OC [tivozanib]
effect on tumor growth (GDF15 [4]; tivozanib 5 mpk daily oral): slows down tumor growth
mice die due to cachexia (GDF15 [4]; tivozanib 5 mpk daily oral gavage + murine IgG 20 mpk, absence of GDF15 inhibition, over 30 days): 70%

B1: 14F11: murine anti-GDF15 antibody; light chain SEQ ID NO: 34, heavy chain SEQ ID NO: 53 (antibody)
heavy: QVTLKESGPGILQPSQTLSLTCSFSGFSLSTYGMGVGWIRQPSGKGLEWLADIWWDDDKYYNPSLKSRLTISKDTSSNEVFLKIAIVDTADTATYYCARRGHYSAMDYWGQGTSVTVSSAKTTPPSVYPLAPGSAAQTNSMVTLGCLVKGYFPEPVTVTWNSGSLSSGVHTFPAVLQSDLYTLSSSVTVPSSTWPSETVTCNVAHPASSTKVDKKIVPRDCGCKPCICTVPEVSSVFIFPPKPKDVLTITLTPKVTCVVVDISKDDPEVQFSWFVDDVEVHTAQTQPREEQFNSTFRSVSELPIMHQDWLNGKEFKCRVNSAAFPAPIEKTISKTKGRPKAPQVYTIPPPKEQMAKDKVSLTCMITDFFPEDITVEWQWNGQPAENYKNTQPIMDTDGSYFVYSKLNVQKSNWEAGNTFTCSVLHEGLHNHHTEKSLSHSPGK
light: DIVMTQSQKFMSTSVGDRVSVTCKASQNVGTNVAWYQQKPGQSPKALIYSPSYRYSGVPDRFTGSGSGTDFTLTISNVQSEDLAEYFCQQYNSYPHTFGGGTKLEMKRADAAPTVSIFPPSSEQLTSGGASVVCFLNNFYPKDINVKWKIDGSERQNGVLNSWTDQDSKDSTYSMSSTLTLTKDEYERHNSYTCEATHKTSTSPIVKSFNRNEC
anti-tumor effect (GDF15 [4]; 14F11 20 mpk + tivozanib 5 mpk, 30 day period): effective anti-tumor treatment
effect on cachexia (GDF15 [4]; 14F11 20 mpk + tivozanib 5 mpk, 30 days): reverses cachexia
sustained survival (GDF15 [4]; 14F11 20 mpk i.p. every 3 days + tivozanib 5 mpk daily oral, over 30 day period, FIG. 1): 100%
